Test results from publication PMC3836994, “Killer Bee Molecules: Antimicrobial Peptides as Effector Molecules to Target Sporogonic Stages of Plasmodium” (PLoS Pathogens, 2013).
No end group written: not given here.

What was measured:
P. falciparum = test: Field P. falciparum from gametocyte carriers membrane-fed to An. gambiae (Mali); assay type: in vivo, Plasmodium falciparum; details: 50 µM; for Oocyst prevalence (oocyst positive mosquitoes), peptide: blood of gametocyte carriers, progeny of field An. gambiae; for Oocyst intensity (mean number of oocysts per gut, range in parentheses), peptide: field parasites and mosquitoes
[1] = system: An. gambiae (Mali strain); test: Mosquito longevity after blood feeds containing AMP; assay type: in vivo, Anopheles gambiae; details: for Significance of effect on longevity over 10 days: 50 µM AMP, Kaplan-Meier, Wilcoxon, peptide vs control; for Percent alive, peptide: over 10 days, 50 µM AMP in human blood, feeds on days 0 and 7, 3 or 4 replicates
Description: (§1) Female An. gambiae (Mali strain, 3–5 days old) were used to establish the effects of AMPs on mosquito longevity and fecundity in the absence of confounding factors introduced with parasite infection. Two hundred 3–6 day old females were fed on human O+ whole blood supplemented with 50 µM AMP (or water control, 1 ml total volume) via feeding chambers of a Hemotek membrane feeding system. Fully engorged mosquitoes were randomly moved into four separate cages, each containing 25 mosquitoes, to facilitate monitoring. Mortality rates were recorded daily for a 10-day period, and oviposition sites were provided on the second and third night post-feeding. A second blood feed containing the same AMP was administered 7 days later to mimic the likelihood that mosquitoes would feed at least twice in the field during the development of sporogonic stages of the malaria parasite. Oviposition sites were again provided to assess fecundity through the number of eggs laid as an average per surviving mosquito. Assays for each AMP were repeated in triplicate on separate generations of mosquitoes. Due to egg retention under experimental conditions, egg production is best measured by dissecting mosquitoes that have not been provided with an oviposition site. However, this is not a feasible method of determining fecundity when longevity is also being measured.

[2] = system: An. gambiae (Mali strain); test: Mosquito oviposition after blood feed containing AMP; assay type: in vivo, Anopheles gambiae; details: for Significance of effect on oviposition: 50 µM AMP, one-way ANOVA, peptide vs control; for Mean no. of eggs laid per mosquito, peptide: after first feed with 50 µM AMP, eggs laid over two nights, averaged per surviving mosquito, 3 or 4 replicates
Description: as §1

[3] = system: Anopheles gambiae Sua 4.0 cells; test: Sua 4.0 mosquito cell growth (cell counts); assay type: cell-based; details: 25 µM AMP; for Average number of cells over 3 replicates, peptide: seeded 30×10^4/ml, mean of 3 experiments
Description: (§2) To establish potential effects of AMPs on mosquito cells, the An. gambiae Sua 4.0 cell line was used. This facilitated an initial high-throughput screening and provided insights into AMP toxicity, mode of action (lytic or other) and speed of action. Sua 4.0 cells were maintained at 27°C in Schneider's insect medium supplemented with 10% FBS (foetal bovine serum) in T25 culture flasks (Fisher, UK).
(§3) Each AMP was tested separately to establish if it affected cell viability and growth. […] Cells were maintained for 3, 6, 24 or 48 h, after which they were resuspended and a sub-sample from duplicate wells counted using a haemocytometer. To establish cell viability after 48 h (whether simply arrested in development or non-viable), resuspended cells were added to an equal volume of 5% erythrosin B vital dye and viable cells excluding the stain were counted. The viability of 100 cells in triplicate wells was recorded. Each AMP assay was performed in triplicate and included a negative control minus the peptide (5 µl of water alone added to the medium) and a further control of 5 µl of 10% SDS (sodium dodecyl sulphate) substituted for the AMP as this causes 100% cell lysis.

P. berghei ookinetes = test: P. berghei ookinete viability in vitro (erythrosin B); assay type: cell-based, Plasmodium berghei; details: 30 min; for Reduction in ookinete viability: versus control
Description: Our primary aim was to target parasites in mosquitoes before they cross the midgut wall, therefore AMPs were first assessed for their ability to kill ookinetes in vitro. […] Ookinete cultures of P. berghei were established from gametocytaemic blood as previously described. Parasites were enriched using cold 0.17M ammonium chloride after 18 h of culture and washed thoroughly with PBS (phosphate buffered saline). Parasites were seeded in triplicate wells of a 96-well microtitre plate at a density of 1×10^5/ml in a volume of 47.5 µl Schneider's insect medium (Invitrogen) with 2.5 µl of the test AMP (final concentration of 50 µM). Ookinetes were incubated for 30 min in conjunction with triplicate control wells containing medium with 2.5 µl of water instead of AMP. A sub-sample of parasites was then added to an equal volume of 5% erythrosin B to assess viability (150 ookinetes in total, taken from 3 wells). Each of the 33 AMPs was screened in this way and assays were performed 3 times. AMPs displaying a high degree of toxicity (>90% of ookinetes displaying erythrosin B staining) underwent further ookinete assays using a concentration of 100 µM AMP. To assess synergistic effects, combinations of two peptides were also tested at a concentration of 25 µM per AMP, in the assay described above.

[4] = system: An. gambiae (Mali strain); test: Mosquito longevity after blood feeds containing AMP; assay type: in vivo, Anopheles gambiae; details: 50 µM AMP in blood on days 0 and 7; extended to 30 days
[5] = system: Anopheles gambiae Sua 4.0 cells; test: Sua 4.0 mosquito cell viability (erythrosin B exclusion); assay type: cell-based; design: dose or concentration left out as unconfirmed; details: after 48 h culture; for Average viability of cells (3 replicates), peptide: erythrosin B exclusion, 100 cells in triplicate wells; for Reduction in cell viability: versus control
Description: as §2, §3

[6] = 3 hrs in culture, haemocytometer count of duplicate wells
[7] = 50 µM of single peptide, n = 150 ookinetes per treatment per replicate

AGYLLGKINLKALAALAKKILGGAGYLLGKINLKALAALAKKIL [TP10 dimer, TP10 (dimer)]
Oocyst prevalence (oocyst positive mosquitoes), peptide (P. falciparum; Replicate 1): 9% (58)
Oocyst intensity (mean number of oocysts per gut, range in parentheses), peptide (P. falciparum; Replicate 1): <1 (0–4)
Oocyst prevalence (oocyst positive mosquitoes), peptide (P. falciparum; Replicate 2): 3% (38)
Oocyst intensity (mean number of oocysts per gut, range in parentheses), peptide (P. falciparum; Replicate 2): <1 (0–1)
Oocyst prevalence (oocyst positive mosquitoes), peptide (P. falciparum; Replicate 3): 20% (49)
Oocyst intensity (mean number of oocysts per gut, range in parentheses), peptide (P. falciparum; Replicate 3): <1 (0–2)
Significance of effect on longevity over 10 days [1]: N/S
Percent alive, peptide [1]: 76%
Significance of effect on oviposition [2]: N/S
Mean no. of eggs laid per mosquito, peptide [2]: 25
Reduction in cell number (compared to control) ([3]; 3 hrs in culture): 20%
Average number of cells over 3 replicates, peptide [3, 6]: 240000 mL⁻¹
Reduction in cell number (compared to control) ([3]; 24 hrs in culture): 42%
Average number of cells over 3 replicates, peptide ([3]; 24 hrs in culture): 250000 mL⁻¹
Reduction in cell number (compared to control) ([3]; 48 hrs in culture): 58%
Average number of cells over 3 replicates, peptide ([3]; 48 hrs in culture): 260000 mL⁻¹
Average ookinete viability (3 reps), peptide (P. berghei ookinetes; [7]): 0%
Reduction in ookinete viability (P. berghei ookinetes; 50 µM of single peptide): 100%
Effect on longevity over 30 days (in words) [4]: significant reduction in survivorship
Average viability of cells (3 replicates), peptide [5]: 1%
Reduction in cell viability [5]: 99%

KFPKFRRGIPFLFVGPSGKFPKFRRGIPFLFV [Vida 3 dimer]
Oocyst prevalence (oocyst positive mosquitoes), peptide (P. falciparum; Replicate 1): 3% (63)
Oocyst intensity (mean number of oocysts per gut, range in parentheses), peptide (P. falciparum; Replicate 1): <1 (0–1)
Oocyst prevalence (oocyst positive mosquitoes), peptide (P. falciparum; Replicate 2): 0% (45)
Oocyst intensity (mean number of oocysts per gut, range in parentheses), peptide (P. falciparum; Replicate 2): 0
Significance of effect on longevity over 10 days [1]: N/S
Percent alive, peptide [1]: 68%
Significance of effect on oviposition [2]: N/S
Mean no. of eggs laid per mosquito, peptide [2]: 43
Reduction in cell number (compared to control) ([3]; 3 hrs in culture): 7%
Average number of cells over 3 replicates, peptide [3, 6]: 280000 mL⁻¹
Reduction in cell number (compared to control) ([3]; 24 hrs in culture): 62%
Reduction in cell number (compared to control) ([3]; 24 hrs in culture, listed as Vida3 dimer): 62%
Average number of cells over 3 replicates, peptide ([3]; 24 hrs in culture): 170000 mL⁻¹
Reduction in cell number (compared to control) ([3]; 48 hrs in culture): 72%
Average number of cells over 3 replicates, peptide ([3]; 48 hrs in culture): 190000 mL⁻¹
Average ookinete viability (3 reps), peptide (P. berghei ookinetes; [7]): 4%
Reduction in ookinete viability (P. berghei ookinetes; 50 µM of single peptide): 96%
Average ookinete viability (3 reps), peptide (P. berghei ookinetes; 100 µM of single peptide): 0%
Reduction in ookinete viability (P. berghei ookinetes; 100 µM of single peptide): 100%
Reduction in ookinete viability (P. berghei ookinetes; 100 µM of single peptide, listed as Vida3 dimer): 100%
Effect on longevity over 30 days (in words) [4]: no significant long-term effects on longevity
Average viability of cells (3 replicates), peptide [5]: 58%
Average viability of cells (3 replicates), peptide ([5]; listed as Vida3 dimer): above 50%
Reduction in cell viability [5]: 38%
